What was measured:
[1] = target: T1, human recombinant histamine H1 receptor (Homo sapiens, UniProt P35367); assay: Histamine H1 radioligand binding ([3H]Pyrilamine); details: compound at 1 μM; read-out: Histamine Binding (1 μM) H1, percent inhibition of specific binding
T1 construct: expressed in transfected cells; host or cells: CHO cells
How it was run: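 Membranes from CHO cells expressing the receptor were incubated with compound and 1.2 nM [3H]pyrilamine for 180 min at 25 °C in 50 mM Tris-HCl pH 7.4 with MgCl2, NaCl and sucrose; 1 μM pyrilamine defined non-specific binding. Filter-bound radioactivity was counted.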

[2] = target: T2, human recombinant adrenergic α1D receptor (Homo sapiens, UniProt P25100); assay: Adrenergic alpha1D radioligand binding ([3H]Prozosin); details: compound at 1 μM; read-out: Adrenergic (1 μM) α1D, percent inhibition of specific binding
T2 construct: expressed in transfected cells; host or cells: HEK-293 cells
T2 sequence (P25100 1-572): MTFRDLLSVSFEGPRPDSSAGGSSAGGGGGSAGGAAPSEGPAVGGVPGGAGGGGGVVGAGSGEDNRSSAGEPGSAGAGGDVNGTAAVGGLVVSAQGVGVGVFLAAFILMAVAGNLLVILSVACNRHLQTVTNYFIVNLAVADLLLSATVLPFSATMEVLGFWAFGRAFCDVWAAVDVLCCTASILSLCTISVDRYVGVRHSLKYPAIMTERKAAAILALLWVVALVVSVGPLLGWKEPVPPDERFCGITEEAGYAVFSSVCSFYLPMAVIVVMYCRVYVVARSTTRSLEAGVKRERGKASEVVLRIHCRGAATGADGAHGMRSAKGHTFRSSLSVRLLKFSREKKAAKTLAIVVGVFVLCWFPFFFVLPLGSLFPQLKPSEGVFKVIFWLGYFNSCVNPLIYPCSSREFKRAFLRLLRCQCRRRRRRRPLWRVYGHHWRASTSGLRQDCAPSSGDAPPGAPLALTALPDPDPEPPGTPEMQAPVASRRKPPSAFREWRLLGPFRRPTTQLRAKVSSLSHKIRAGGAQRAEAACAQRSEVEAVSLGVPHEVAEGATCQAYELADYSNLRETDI
How it was run: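 Membranes from HEK-293 cells expressing the human receptor in 50 mM Tris-HCl pH 7.4 were incubated 60 min at 25 °C with 0.6 nM [3H]prazosin. Nonspecific binding was defined with 10 μM phentolamine, and bound ligand measured by filtration.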

[3] = target: T3, human recombinant adrenergic α2B receptor (Homo sapiens, UniProt P18089); assay: Adrenergic alpha2B radioligand binding ([3H]Rauwolscine); details: compound at 1 μM; read-out: Adrenergic (1 μM) α2B, percent inhibition of specific binding
T3 construct: expressed in transfected cells; host or cells: CHO-K1 cells
T3 sequence (P18089 1-450): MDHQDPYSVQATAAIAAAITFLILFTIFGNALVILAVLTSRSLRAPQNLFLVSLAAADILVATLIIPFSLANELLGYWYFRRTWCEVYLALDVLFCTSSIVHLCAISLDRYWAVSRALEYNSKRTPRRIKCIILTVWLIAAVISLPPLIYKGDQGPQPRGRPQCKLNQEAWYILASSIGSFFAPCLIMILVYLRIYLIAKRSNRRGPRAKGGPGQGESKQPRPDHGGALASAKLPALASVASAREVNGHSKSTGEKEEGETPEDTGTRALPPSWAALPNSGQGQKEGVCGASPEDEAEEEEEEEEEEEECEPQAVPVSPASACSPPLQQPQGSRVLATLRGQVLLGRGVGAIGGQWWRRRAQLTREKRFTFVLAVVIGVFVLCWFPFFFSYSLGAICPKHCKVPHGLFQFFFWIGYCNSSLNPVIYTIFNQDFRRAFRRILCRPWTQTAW
How it was run: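 CHO-K1-expressed receptor in Tris-HCl pH 7.4 with MgCl2, EDTA, BSA, incubated 60 min at 25° C with 2.5 nM [3H]Rauwolscine; 10 μM prazosin defines non-specific binding.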

T1 sequence (P35367 whole entry): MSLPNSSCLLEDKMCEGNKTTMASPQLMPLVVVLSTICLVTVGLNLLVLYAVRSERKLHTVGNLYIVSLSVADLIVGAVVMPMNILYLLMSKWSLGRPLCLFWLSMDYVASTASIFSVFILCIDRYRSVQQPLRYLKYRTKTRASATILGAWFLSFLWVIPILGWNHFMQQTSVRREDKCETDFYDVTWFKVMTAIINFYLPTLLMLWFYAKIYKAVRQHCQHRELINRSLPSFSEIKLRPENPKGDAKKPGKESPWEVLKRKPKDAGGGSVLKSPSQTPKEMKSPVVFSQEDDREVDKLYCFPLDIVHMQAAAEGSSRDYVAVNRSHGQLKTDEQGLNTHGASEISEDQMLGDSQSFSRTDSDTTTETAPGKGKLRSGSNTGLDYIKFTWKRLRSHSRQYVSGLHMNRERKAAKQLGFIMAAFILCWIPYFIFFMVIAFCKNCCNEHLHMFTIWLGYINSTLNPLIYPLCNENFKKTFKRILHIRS

Compound | inhibition at 1 µM [1] | inhibition at 1 µM [2] | inhibition at 1 µM [3]
Cc1ccc2c(c1)c1c(n2CC(=O)N2CCNCC2)CCN(C)CC1 [Compound No. 224, 2-(3,9-dimethyl-2,3,4,5-tetrahydroazepino[4,5-b]indol-6(1H)-yl)-1-(piperazin-1-yl)ethanone] | 33% | 19% | -6%
CN1CCc2c(n(/C=C/c3ccccc3F)c3ccc(Cl)cc23)CC1 [Compound No. 83, (E)-9-chloro-6-(2-fluorostyryl)-3-methyl-1,2,3,4,5,6-hexahydro azepino[4,5-b]indole] | 97% | 93% | 113%
COc1ccc(/C=C/n2c3c(c4cc(Cl)ccc42)CCN(C)CC3)cc1OC [Compound No. 226, (E)-9-chloro-6-(3,4-dimethoxystyryl)-3-methyl-1,2,3,4,5,6-hexahydroazepino[4,5-b]indole] | 99% | 83% | 102%
COc1ccc(/C=C/n2c3c(c4cc(Cl)ccc42)CCN(C)CC3)cc1 [Compound No. 78, 6-(4-methoxystyryl)-9-chloro-1,2,3,4,5,6-hexahydro-3-methylazepino[4,5-b]indole] | 100% | 102% | 111%
C/C(=C/n1c2c(c3cc(C)ccc31)CCN(C)CC2)c1ccc(Cl)cc1Cl [Compound No. 174, (Z)-6-(2-(2,4-dichlorophenyl)prop-1-enyl)-1,2,3,4,5,6-hexahydro-3,9-dimethylazepino[4,5-b]indole] | 98% | 89% | 105%
CN1CCc2c(n(/C=C/c3ccccc3)c3ccc(Cl)cc23)CC1 [Compound No. 228, (E)-9-chloro-3-methyl-6-styryl-1,2,3,4,5,6-hexahydroazepino[4,5-b]indole] | 99% | 98% | 110%
Cc1ccc2c(c1)c1c(n2CC(=O)Nc2ccccc2)CCN(C)CC1 [Compound No. 79, 2-(2,3,4,5-tetrahydro-3,9-dimethylazepino[4,5-b]indol-6(1H)-yl)-N-phenylacetamide] | 6% | -6% | 20%
COc1ccc(/C=C/n2c3c(c4cc(C)ccc42)CCN(C)CC3)cc1F [Compound No. 180, (E)-6-(3-fluoro-4-methoxystyryl)-1,2,3,4,5,6-hexahydro-3,9-dimethylazepino[4,5-b]indole] | 97% | 98% | 103%
CN1CCc2c(n(CCc3ccc(C(F)(F)F)nc3)c3ccc(Cl)cc23)CC1 [Compound No. 1, 9-chloro-6-(2-(6-(trifluoromethyl)pyridin-3-yl)ethyl)-1,2,3,4,5,6-hexahydro-3-methylazepino[4,5-b]indole] | 96% | 90% | 107%
COc1ccc(C(O)Cn2c3c(c4cc(Cl)ccc42)CCN(C)CC3)cc1OC (stereo not drawn) [Compound No. 77, 2-(9-chloro-2,3,4,5-tetrahydro-3-methylazepino[4,5-b]indol-6(1H)-yl)-1-(3,4-dimethoxyphenyl)ethanol] | 97% | 81% | 113%
CC1CCN(C(=O)Cn2c3c(c4cc(Cl)ccc42)CCN(C)CC3)CC1 [Compound No. 76, 2-(9-chloro-2,3,4,5-tetrahydro-3-methylazepino[4,5-b]indol-6(1H)-yl)-1-(4-methylpiperidin-1-yl)ethanone] | 95% | 37% | 31%
C/C(=C/n1c2c(c3cc(Cl)ccc31)CCN(C)CC2)c1ccc(Cl)cc1Cl [Compound No. 152, (Z)-9-chloro-6-(2-(2,4-dichlorophenyl)prop-1-enyl)-1,2,3,4,5,6-hexahydro-3-methylazepino[4,5-b]indole] | 91% | 47% | 88%
Cc1cncc(CCn2c3c(c4cc(Cl)ccc42)CCN(C)CC3)c1 [Compound No. 3, 9-chloro-3-methyl-6-(2-(5-methylpyridin-3-yl)ethyl)-1,2,3,4,5,6-hexahydroazepino[4,5-b]indole] | 102% | 89% | 112%
C=C(Cn1c2c(c3cc(Cl)ccc31)CCN(C)CC2)c1ccc(F)cc1 [Compound No. 82, 9-chloro-6-(2-(4-fluorophenyl)allyl)-3-methyl-1,2,3,4,5,6-hexahydroazepino[4,5-b]indole] | 103% | 96% | 91%
Cc1ccc2c(c1)c1c(n2CC(=O)N2CCC(C)CC2)CCN(C)CC1 [Compound No. 225, 2-(3,9-dimethyl-2,3,4,5-tetrahydroazepino[4,5-b]indol-6(1H)-yl)-1-(4-methylpiperidin-1-yl)ethanone] | 95% | 34% | 13%
COc1ccc(C(O)Cn2c3c(c4cc(C)ccc42)CCN(C)CC3)cc1OC (stereo not drawn) [Compound No. 227, 1-(3,4-dimethoxyphenyl)-2-(3,9-dimethyl-2,3,4,5-tetrahydroazepino[4,5-b]indol-6(1H)-yl)ethanol] | 95% | 73% | 98%
COc1ccc(/C=C/n2c3c(c4cc(Cl)ccc42)CCN(C)CC3)cc1F [Compound No. 158, (E)-6-(3-fluoro-4-methoxystyryl)-9-chloro-1,2,3,4,5,6-hexahydro-3-methylazepino[4,5-b]indole] | 98% | 98% | 109%
C/C(=C\n1c2c(c3cc(Cl)ccc31)CCN(C)CC2)c1ccc(F)cc1 [Compound No. 2, 9-chloro-6-((E)-2-(4-fluorophenyl)prop-1-enyl)-1,2,3,4,5,6-hexahydro-3-methylazepino[4,5-b]indole] | 93% | 100% | 111%

— US9481676B2, “Azepino[4,5-B]indoles and methods of use” (Medivation Technologies, Inc., priority 2008, dated 2016)
